Reference: patent publication US6774143B1, “Method for treating cells resistant to antineoplastic agents” (Novartis AG, priority 2003, dated 2004)

System: MIP 101 human colon tumor xenograft
Assay: Subcutaneous MIP 101 colon tumor model in athymic nude mice
Assay type: in vivo
Settings: for fate of the animals: all animals
Source text: All cell lines that are used in animal studies are free of Mycoplasma contamination (Rapid Detection System by Gen-Probe, Inc., San Diego, Calif.) and viral contamination (MAP testing by MA BioServices, Inc., Rockville, Md.). The HCT-15 human colon tumor cell line is purchased from the American Type Culture Collection, Rockville, Md., Accession Number ATCC CCL 225. The MIP 101 human colon tumor cell line is obtained from Dr. R. Kramer (Bristol Meyers Squibb) and was previously described (Niles R M, et al. Cancer Invest. 1987;5(6):545-52). These cells are Pgp-1 (human Pgp) overexpressors, making the cells resistant to paclitaxel. All cell lines are propagated and expanded in RPMI 1640 medium containing 10% heat-inactivated FBS (Life Technologies, Grand Island, N.Y.). Cell expansions for implantation are performed in T225 tissue culture flasks. Cells are harvested at 70-90% confluency, washed once with HBSS containing 10% FBS, and are suspended in plain HBSS.
Outbred athymic (nu/nu) female mice (“Hsd:Athymic Nude-nu” from Harlan Sprague Dawley, Indianapolis, Ind.) are anesthetized with Metofane (Mallinckrodt Veterinary, Inc., Mundelein, Ill.,). A cell suspension (100 μL) containing 1×10^6 cells is then injected sc into the right axillary (lateral) region of each animal. Tumors are allowed to grow until a volume of approximately 100 mm^3 was achieved. At this point, mice bearing tumors are sorted into groups of eight for the study. The sorting process produced groups balanced with respect to mean and range of tumor size.
Discodermolide is isolated from the sponge Discodermia dissoluta using the methods of (Gunasekera S P, et al. supra). Multiple batches of compound of similar purity (all>95% pure, as determined by mass spectrometry, and nuclear magnetic resonance analysis) are used throughout the various studies. Solid discodermolide is dissolved in pure ethanol to create a stock solution which is diluted just before dosing with Cremophor EL (Crm) and D5W to a final concentration of 16.7% Cremophor EL, 8.3% ethanol and 75% D5W. The compound is administered intravenously (iv). In the first study discodermolide is tested against both tumors at five different dosing schedules: (i.) 30 mg/kg dosed as two 15 mg/kg injections on day 1 of the experiment, (ii.) 30 mg/kg dosed as three 10 mg/kg injections on days 1, 2, and 3, (iii.) 15 mg/kg dosed as a single injection on day 1, (iv.) 20 mg/kg dosed as a 15 mg/kg injection on day 1, followed by a 5 mg/kg injection on day 11, and (v.) 10 mg/kg dosed as a 7.5 mg/kg injection on day 1 followed by a 2.5 mg/kg injection on day 11. In the second study discodermolide is dosed as one injection on the first day of the experiment, at 2.5 mg/kg, 5 mg/kg, 7.5 mg/kg, 10 mg/kg, 12.5 mg/kg, or 15 mg/kg. In addition the 7.5 mg/kg injection on day 1 followed by a 2.5 mg/kg injection on day 11 is repeated from the first study. The actual doses, regimens and routes of administration used for the specific models are discussed in each section separately. Positive control animals receive clinical formulations of paclitaxel (TAXOL) diluted 4-fold with D5W and administered iv once daily for five consecutive days. Vehicle control for paclitaxel is administered according to paclitaxel's schedule. In the first study vehicle controls for discodermolide (16.7% Cremophor EL, 8.3% ethanol and 75% D5W) are administered as three daily injections on days 1, 2, and 3, or as two injections on days 1, and 11. In the second study vehicle control for discodermolide is administered as a single injection on day 1.
Tumors are measured, and individual animal body weights are recorded once weekly. Standard experiments are conducted for 3 full weeks from the initial dosing.
Antitumor activity is expressed as % T/C (comparing Δ tumor volumes for treatment group to vehicle control group). […]

[1] = first study, 7.5 mg/kg day 1 + 2.5 mg/kg day 11
[2] = first study, discodermolide iv single 15 mg/kg injection on day 1
[3] = first study, two 15 mg/kg injections on day 1 (30 mg/kg total)
[4] = second study, 7.5 mg/kg day 1 + 2.5 mg/kg day 11

Q: Which “inhibition of tumor growth (in words)” value (MIP 101 xenograft, athymic nude mice) does the source give for C=C/C=C\[C@H](C)[C@H](OC(N)=O)[C@@H](C)[C@H](O)[C@@H](C)C/C(C)=C\[C@H](C)[C@@H](O)[C@@H](C)/C=C\[C@@H](O)C[C@@H]1OC(=O)[C@H](C)[C@@H](O)[C@H]1C [discodermolide, (+)-Discodermolide] here?
A: statistically significant (p<0.01) and reproducible inhibition of tumor growth

Q: And the T/C [1]?
A: 38%

Q: What about the body weight loss [1] of the same compound?
A: 21.3%

Q: What about the “fate of the animals” value (first study, 15 mg/kg day 1 + 5 mg/kg day 11) of the same compound?
A: sacrificed in the beginning of the third week of the experiment due to the excessive body weight loss

Q: And the “fate of the animals” value (first study, 30 mg/kg as three 10 mg/kg injections on days 1, 2, 3)?
A: die on day 5 of the experiment

Q: What about the T/C [2] of the same compound?
A: 36%

Q: What about the body weight loss [2] of the same compound?
A: 18.9%

Q: And the T/C [3]?
A: 24%

Q: And the body weight loss [3]?
A: 23.4%

Q: And the T/C [4]?
A: 35%

Q: And the body weight loss [4]?
A: 11.4%

Q: What about the deaths [4] of the same compound?
A: One animal in that group dies from apparent drug toxicity

Q: And the body weight loss (second study, single injection 2.5 mg/kg)?
A: 7.9%

Q: What about the T/C (second study, single injection 2.5 mg/kg day 1) of the same compound?
A: 59%

Q: And the body weight loss (second study, single injection 5 mg/kg)?
A: 10.2%

Q: What about the T/C (second study, single injection 5 mg/kg day 1) of the same compound?
A: 57%

Q: And the body weight loss (second study, single injection 7.5 mg/kg)?
A: 13.2%

Q: What about the T/C (second study, single injection 7.5 mg/kg day 1) of the same compound?
A: 46%

Q: And the body weight loss (second study, single injection 10 mg/kg)?
A: 18.7%

Q: What about the T/C (second study, single injection 10 mg/kg day 1) of the same compound?
A: 37%

Q: And the body weight loss (second study, single injection 12.5 mg/kg)?
A: 15.5%

Q: And the T/C (second study, single injection 12.5 mg/kg day 1)?
A: 22%

Q: What about the body weight loss (second study, single injection 15 mg/kg) of the same compound?
A: 11.7%

Q: And the T/C (second study, single injection 15 mg/kg day 1)?
A: 18%

Q: With CC(=O)O[C@H]1C(=O)[C@@]2(C)[C@H]([C@H](OC(=O)c3ccccc3)[C@]3(O)C[C@H](OC(=O)[C@H](O)[C@@H](NC(=O)c4ccccc4)c4ccccc4)C(C)=C1C3(C)C)[C@]1(OC(C)=O)CO[C@@H]1C[C@@H]2O [paclitaxel, reference compound] as the compound, how does the T/C (first study, paclitaxel 15 mg/kg daily for the first 5 days) read?
A: 82%

Q: And the T/C (second study, paclitaxel iv once daily for five days, p<0.01)?
A: 54%
